Data taken from the supplement of paper PMC3974653.
Where a name gives a salt, the structure may show the parent alone.

System: MTT (mouse pheochromocytoma)
Assay: IC50 of cell viability (ATP content)
Settings: (24 or 48 h)
How it was run: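 Library compounds in DMSO (23 nl by pintool, 8 concentrations, final 0.5 nM to 46 µM) were applied for 24 or 48 hrs to MTT mouse pheochromocytoma cells that had been cultured overnight at 37°C, 5% CO2 in white 1536-well plates. Cell viability was measured by CellTiter-Glo ATP luminescence, read after 15 minutes, with positive-control wells set at 100% and DMSO wells at 0%. A four-parameter logistic fit of the normalised signals yielded the IC50.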

SMILES | IC50 of cell viability [µM]
CCC/C=C/C=C/C(=O)OC1/C(=C/C(=O)OC)CC2CC(C(C)O)OC(=O)CC(O)CC3CC(OC(C)=O)C(C)(C)C(O)(CC4C/C(=C/C(=O)OC)CC(C=CC(C)(C)C1(O)O2)O4)O3 (centres undefined) [BRYOSTATIN-1] | > 46
CSc1ccc(/C=C2/C(C)=C(CC(=O)O)c3cc(F)ccc32)cc1 [Sulindac sulfide] | > 46
CCN(CC)C(=O)c1cccc(C)c1 [DIETHYLTOLUAMIDE] | > 46
NCCCC(=O)O [GABA] | > 46
COC1=C2OC3C(O)\C=C/C4[C@H]5CC(=C2[C@@]34CCN5)C=C1 (some centres undefined) [N-Norcodeine] | > 46
CN1C[C@@H]2c3ccccc3Oc3ccc(Cl)cc3[C@H]2C1 [Asenapine] | > 46
CCOP(=O)(NC(C)C)Oc1ccc(SC)c(C)c1 (centres undefined) [Fenamiphos] | > 46
Oc1cccc(O)c1 [Resorcinol] | > 46
CCOC(=O)[C@H](CCc1ccccc1)N[C@@H](C)C(=O)N1C(=O)N(C)C[C@H]1C(=O)O [IMIDAPRIL HYDROCHLORIDE] | > 46
CC(C[N+](C)(C)C)OC(N)=O (stereo not drawn) [CARBAMYL-beta-METHYLCHOLINE] | > 46
C[S+](=O)([O-])CCNCc1ccc(-c2ccc3ncnc(Nc4ccc(OCc5cccc(F)c5)c(Cl)c4)c3c2)o1 [LAPATINIB TOSILATE HYDRATE] | > 46
CC(C)NCC(O)c1ccc(N[S+](C)(=O)[O-])cc1.Cl (centres undefined) [DEXSOTALOLUM] | > 46
O=C(O)c1ccc[n+]([O-])c1 [Acide oxiniacique] | > 46
CCC1(CC)C(=O)NC(=O)NC1=O [Barbital] | > 46
CC(C)CCCC(C)NC(C)C (centres undefined) [IPROHEPTINE HYDROCHLORIDE] | > 46
[NH2][Pt]1([NH2])[O]C(=O)C2(CCC2)C(=O)[O]1 [CARBOPLATIN] | > 46
CC1(O\C(=C/C1=O)C(O)=O)C2=CC=CC=C2 (centres undefined) [Acifran] | > 46
CN1C(=O)NC(=O)C(C)(C2=CCCCC2)C1=O (centres undefined) [Hexobarbital] | > 46
Cc1ccc(-n2nc(C(C)(C)C)cc2NC(=O)Nc2ccc(OCCN3CCOCC3)c3ccccc23)cc1 [DORAMAPIMOD] | > 46
Cc1c(C)c2c(c(C)c1O)CCC(C)(COc1ccc(CC3SC(=O)NC3=O)cc1)O2 (centres undefined) [Troglitazone] | > 46

SMILES | IC50 of cell viability [µM]
CC[C@]12CC(=C)[C@H]3[C@@H](CCC/4=C/C(=O)CC[C@H]34)[C@@H]1CC[C@@]2(O)C#C [ETONOGESTREL] | > 46
CCC1OC(=O)C(C)[C@@H](O[C@H]2C[C@@](C)(OC)C(O)C(C)O2)C(C)[C@@H](O[C@@H]2OC(C)CC(N(C)C)C2O)[C@@](C)(OC)CC(C)C(=O)[C@@H](C)C(O)[C@]1(C)O (some centres undefined) [CLARITHROMYCIN] | > 46
O=C(O)CC/C=C\CC[C@@H]1[C@@H](N2CCCCC2)[C@@H](O)C[C@@H]1OCc1ccc(-c2ccccc2)cc1 [VAPIPROST HYDROCHLORIDE] | > 46
C=CCOc1ccc(CC(=O)O)cc1Cl [Alclofenac] | > 46
CC(=O)OC1=CC=C(C=C1)C(=C2/CCCCC2)\C3=CC=C(OC(C)=O)C=C3 [CYCLOFENIL] | > 46
CC(C)C1NC(=O)[C@@H](NC(=O)C2=C3\N=C\4/C(=C(/C)C(=O)\C(=C4C(=O)N[C@H]5[C@@H](C)OC(=O)C(C(C)C)N(C)C(=O)CN(C)C(=O)[C@@H]6CCCN6C(=O)C(NC5=O)C(C)C)N)OC3=C(C)C=C2)[C@@H](C)OC(=O)C(C(C)C)N(C)C(=O)CN(C)C(=O)[C@@H]7CCCN7C1=O (some centres undefined) | > 46
O=C(O)/C=C(/CC(=O)O)C(=O)O [TRANS-ACONITIC ACID] | > 46
CC1(C)OC(=O)NC1=O [DIMETHADIONE] | > 46
O=[N+]([O-])c1cc(I)c(O)c(I)c1 [DISOPHENOL SODIUM] | > 46
COc1ccc(C(=O)Nc2ccccc2CCC2CCCCN2C)cc1 (centres undefined) [Encainide hydrochloride] | > 46
C/C(=C\C(=O)OCCCCCCCCC(=O)O)C[C@@H]1OC[C@H](C[C@@H]2O[C@H]2[C@@H](C)[C@H](C)O)[C@@H](O)[C@H]1O [MUPIROCIN] | > 46
COCC(=O)Nc1c(I)c(C(=O)NC[C@@H](O)CO)c(I)c(C(=O)N(C)C[C@@H](O)CO)c1I [Iopromide] | > 46
CC(=O)Nc1ccc(OC(=O)c2ccccc2OC(C)=O)cc1 [BENORILATE] | > 46
O=C1c2ccccc2C(=O)C1c1ccc(Br)cc1 [Bromindione] | > 46
CC1=NN=C2C\N=C(C3=CC=CC=C3Cl)/C4=C(SC(=C4)CCC(=O)N5CCOCC5)[N]12 [Apafant] | > 46
CCc1cc(OC)c(CC(C)N)cc1OC (single isomer, unassigned; (-)) [(-)-2,5-Dimethoxy-4-ethylamphetamine] | > 46
ClC1=CC(=CC=C1)N2CCN(CCCN3\N=C4\C=C/C=C\N4C3=O)CC2 [Trazodone hydrochloride] | > 46
CN(C)\C1=C(/C)N(C)N(C2=CC=CC=C2)C1=O [4-Dimethylaminoantipyrine] | > 46
CCCCN(CCCC)CC[C@H](O)c1cc2c(Cl)cc(Cl)cc2c2cc(C(F)(F)F)ccc12 [Halofantrine hydrochloride] | > 46
CC(=O)O[C@H]1C[C@@H]2CC[C@@H]3[C@H](CC[C@]4(C)[C@H](OC(C)=O)[C@@H](N5CC[N+](C)(C)CC5)C[C@@H]34)[C@@]2(C)C[C@@H]1N1CC[N+](C)(C)CC1 [Pipecuronium] | > 46

SMILES | IC50 of cell viability [µM]
CCC[C@@H]1O[C@@H]2C[C@@H]3[C@@H]4CC\C5=C\C(=O)\C=C/[C@@]5(C)[C@H]4[C@H](O)C[C@@]3(C)[C@]2(O1)C(=O)CO [Budesonide] | > 46
c1ccc2sc(SNC3CCCCC3)nc2c1 [N-CYCLOHEXYLBENZOTHIAZYLSULFENAMIDE] | > 46
CC(=O)OCC1=C(C(=O)[O-])N2C(=O)C(NC(=O)Cc3ccccc3)C2SC1 (centres undefined) [Cefaloram] | > 46
C[S+](=O)([O-])c1ccc([C@H](O)[C@H](CO)NC(=O)C(Cl)Cl)cc1 [Thiamphenicol] | > 46
CC12CCC3C4CCC(=O)C(O)=C4CCC3C1CCC2OC(=O)CCC1CCCC1 (centres undefined) [OXABOLONE CIPIONATE] | > 46
Cc1ccc(C(=O)Nc2ccc(S(=O)(=O)O)c3cc(S(=O)(=O)O)cc(S(=O)(=O)O)c23)cc1NC(=O)c1cccc(NC(=O)Nc2cccc(C(=O)Nc3cc(C(=O)Nc4ccc(S(=O)(=O)O)c5cc(S(=O)(=O)O)cc(S(=O)(=O)O)c45)ccc3C)c2)c1 [SURAMIN] | > 46
NC(=O)Oc1ccc(Cc2ccccc2)cc1 [Difenano] | > 46
Cn1c(CCCC(=O)O)nc2cc(N(CCCl)CCCl)ccc21 [BENDAMUSTINUM] | > 46
CCNC(=O)NCc1cccc(Cl)c1 [Lozilurea] | > 46
Cc1ccc(O)c([C@H](CCN(C(C)C)C(C)C)c2ccccc2)c1 [Tolterodina] | > 46
OCc1cc(C(O)CNCCCCCCOCCCCc2ccccc2)ccc1O (centres undefined) [Salmeterol] | > 46
O=C(O)CCc1nc2ccccc2[nH]1 [PROCODAZOLUM] | > 46
CCCCC(F)(F)[C@@]1(O)CC[C@H]2[C@@H](CC(=O)[C@@H]2CCCCCCC(=O)O)O1 [Lubiprostone] | > 46
CC(N[NH3+])c1ccccc1 (centres undefined) [Mebanazine] | > 46
CNCCCC1C2=C(C=CC=C2)\C=C/C3=C1C=CC=C3 [Protriptyline hydrochloride] | > 46
CN(C)CC[C@@H](c1ccc(Br)cc1)c1ccccn1 [Dexbrompheniramine maleate salt] | > 46
CN(C)[C@H]\1[C@@H]2[C@@H](O)[C@@H]\3C(=C)C4=C(Cl)C=CC(=C4C(=O)C3=C(\O)[C@@]2(O)C(=O)\C(=C1O)C(N)=O)O.OC(=O)C5=C(O)C=CC(=C5)[S+](O)([O-])=O [Meclocycline sulfosalicylate] | > 46
Cc1cccc(C)c1OCC(C)N.Cl (centres undefined) [Mexiletene hydrochloride] | > 46
Cc1nccn1CC1CCc2c(c3ccccc3n2C)C1=O (centres undefined) [Ondansetron] | > 46
